# Reference: patent US20070173462A1, “Treatment of diseases associated with the use of antibiotics” (Optimer Pharmaceuticals, Inc., priority 2004, published 2007)
# Columns and labels:
# C. paraputrificum = test: microbe, parasite or virus in culture; type: cell-based; details: clinical isolates, n=10
# C. perfringens = test: microbe, parasite or virus in culture; type: cell-based
# toxigenic C. difficile = test: Hamster model of clindamycin-induced Clostridium difficile associated diarrhea/colitis; type: in vivo, Syrian hamsters
# Experimental: Animals were treated with two oral doses of clindamycin at 100 mg/kg. Three days after the second dose of clindamycin, they were inoculated with toxigenic C. difficile spores. […] Animals were observed daily for the presence or absence of diarrhea. Necropsies were performed on some animals that died during the experiment, and cecal contents were assayed for C. difficile toxin A. Hamsters were monitored for 20 days, and the cumulative mortality during this period was recorded (FIG. 1).
# Micrococcus sp. = test: MIC, ATCC laboratory strains (NCCLS guidelines); type: cell-based
# Experimental: (§1) The activity of Compound I was tested against laboratory strains of different species of bacteria using NCCLS antimicrobial susceptibility testing guidelines. […] Including MRSA and Enterococcus sp. Including VRE (Table. 2).
# Bacillus sp. = test: MIC, ATCC laboratory strains (NCCLS guidelines); type: cell-based; details: n=2
# Experimental: as §1
# Enterobacteriaceae. = test: MIC, ATCC laboratory strains (NCCLS guidelines); type: cell-based; details: n=10
# Experimental: as §1
# Clostridium sp. = test: MIC, ATCC laboratory strains (NCCLS guidelines); type: cell-based
# Experimental: as §1
# Neisseria sp. = test: MIC, ATCC laboratory strains (NCCLS guidelines); type: cell-based; details: n=3, in µg/mL
# Experimental: as §1
# Moraxella sp. = test: MIC, ATCC laboratory strains (NCCLS guidelines); type: cell-based; details: n=2, in µg/mL
# Experimental: as §1
# Helicobacter sp. = test: MIC, ATCC laboratory strains (NCCLS guidelines); type: cell-based; details: n=1
# Experimental: as §1
# [1] = system: Staphylococcus sp. (incl. MRSA); test: MIC, ATCC laboratory strains (NCCLS guidelines); type: cell-based
# Experimental: as §1
# Fusobacterium sp. = test: MIC, ATCC laboratory strains (NCCLS guidelines); type: cell-based; details: n=1
# Experimental: as §1
# Bacteroides sp. = test: MIC, ATCC laboratory strains (NCCLS guidelines); type: cell-based; details: n=5
# Experimental: as §1
# [2] = system: Enterococcus sp. (incl. VRE); test: MIC, ATCC laboratory strains (NCCLS guidelines); type: cell-based
# Experimental: as §1
# Streptococcus sp. = test: MIC, ATCC laboratory strains (NCCLS guidelines); type: cell-based; details: n=5, in µg/mL
# Experimental: as §1
# Citrobacter sp. = test: MIC, ATCC laboratory strains (NCCLS guidelines); type: cell-based; details: n=2
# Experimental: as §1
# Veillonella sp. = test: microbe, parasite or virus in culture; type: cell-based; details: clinical gastrointestinal isolates, n=10
# Eschericia coli = test: organism not typed; type: cell-based; details: clinical gastrointestinal isolates, n=10
# C. sordellii = test: microbe, parasite or virus in culture; type: cell-based; details: clinical isolates, n=5
# Proteus mirabilis = test: microbe, parasite or virus in culture; type: cell-based; details: clinical gastrointestinal isolates, n=10
# Stephylococcus sp. = test: organism not typed; type: cell-based; details: clinical gastrointestinal isolates, n=19
# C. bolteae = test: microbe, parasite or virus in culture; type: cell-based; details: Enterocloster bolteae; clinical isolates, n=6
# [3] = system: Bacteroides fragilis group; test: microbe, parasite or virus in culture; type: cell-based; details: Bacteroides fragilis; clinical gastrointestinal isolates, n=54
# C. clostridioforme = test: organism not typed; type: cell-based; details: clinical isolates, n=5
# C. innocuum = test: microbe, parasite or virus in culture; type: cell-based; details: [Clostridium] innocuum; clinical isolates, n=9
# Other Clostridium sp. = test: microbe, parasite or virus in culture; type: cell-based; details: Clostridium; clinical isolates, n=11
# C. difficile = test: microbe, parasite or virus in culture; type: cell-based; details: clinical isolates, n=23
# Bacteroides fragilis = test: MIC, clinical isolates (Table 3); type: cell-based; details: n=69
# Source text: (§2) Compound I was additionally tested against anaerobic clinical isolates and against aerobic bacteria. […] The compound was also active against clinical strains of Staphylococcus sp. and Enterococcus sp.
# Lactobacillus sp. = test: MIC, clinical isolates (Table 3); type: cell-based; details: n=8, in µg/mL
# Source text: as §2
# Propionibacterium sp. = test: MIC, clinical isolates (Table 3); type: cell-based; details: n=16
# Source text: as §2
# Prevotella sp. = test: MIC, clinical isolates (Table 3); type: cell-based; details: n=35
# Source text: as §2
# [4] = system: Anaerobic Gram positive cocci; test: organism not typed; type: cell-based; details: clinical gastrointestinal isolates, n=49
# Enterococcus sp. = test: microbe, parasite or virus in culture; type: cell-based; details: clinical gastrointestinal isolates, n=22
smiles,measurement,setting,value
CCc1c(Cl)c(O)c(Cl)c(O)c1C(=O)O[C@H]1[C@H](O)[C@H](OC)[C@H](OC/C2=C\C=C\C[C@H](O)/C(C)=C/[C@H](CC)C(O[C@@H]3OC(C)(C)[C@@H](OC(=O)C(C)C)[C@H](O)[C@@H]3O)/C(C)=C/C(C)=C/C[C@@H](C(C)O)OC2=O)O[C@@H]1C (stereo partly shown) [Compound I],MIC50,C. paraputrificum; Clostridium paraputrificum,8 µg/mL
same,MIC90,C. paraputrificum; Clostridium paraputrificum,32 µg/mL
same,Range (MIC),C. paraputrificum,0.062-64 ^ μg/mL
same,MIC50,C. perfringens; Clostridium perfringens,0.062 µg/mL
same,MIC90,C. perfringens; Clostridium perfringens,0.062 µg/mL
same,Range (MIC),"C. perfringens; clinical isolates, n=14",0.062 µg/mL
same,ED50,"toxigenic C. difficile; Clostridioides difficile, oral, 7 days, started 8 hours after infection, hamsters monitored 20 days",< 0.3 mg/kg
same,protection from infection (cumulative mortality over 20 days),"toxigenic C. difficile; oral treatment for 7 days, untreated infection uniformly fatal between days two and six",protected the animals from infection
same,Range (MIC),"Micrococcus sp.; ATCC laboratory strains, n=4",≦0.125
same,activity (in words),Micrococcus sp.; laboratory strains,excellent activity
same,Range (MIC),Bacillus sp.,1 µg/mL
same,Range (MIC),Enterobacteriaceae.,> 32 µg/mL
same,Range (MIC),"Clostridium sp.; ATCC laboratory strains, n=4",≦0.015-0.0625
same,activity (in words),Clostridium sp.; laboratory strains,excellent activity
same,Range (MIC),Neisseria sp.,8-64
same,Range (MIC),Moraxella sp.,1-2
same,Range (MIC),Helicobacter sp.,> 32 µg/mL
same,Range (MIC),"[1]; ATCC laboratory strains, n=6, in µg/mL",1-16
same,activity (in words),"[1]; laboratory strains, including MRSA",moderate activity
same,Range (MIC),Fusobacterium sp.,> 32 µg/mL
same,Range (MIC),Bacteroides sp.,> 32 µg/mL
same,Range (MIC),"[2]; ATCC laboratory strains, n=4",4 µg/mL
same,activity (in words),"[2]; laboratory strains, including VRE",moderate activity
same,Range (MIC),Streptococcus sp.,16-32
same,Range (MIC),Citrobacter sp.,> 64 µg/mL
same,MIC50,Veillonella sp.; Veillonella,32 µg/mL
same,MIC90,Veillonella sp.; Veillonella,128 µg/mL
same,Range (MIC),Veillonella sp.,16 to 128 µg/mL
same,MIC50,Eschericia coli,> 256 µg/mL
same,MIC90,Eschericia coli,> 256 µg/mL
same,Range (MIC),Eschericia coli,>256 µg/mL
same,MIC50,C. sordellii; Paraclostridium sordellii,0.062 µg/mL
same,MIC90,C. sordellii; Paraclostridium sordellii,0.062 µg/mL
same,Range (MIC),C. sordellii,0.062 µg/mL
same,MIC50,Proteus mirabilis; Proteus mirabilis,> 256 µg/mL
same,MIC90,Proteus mirabilis; Proteus mirabilis,> 256 µg/mL
same,Range (MIC),Proteus mirabilis,>256 µg/mL
same,MIC50,Stephylococcus sp.,0.5 µg/mL
same,MIC90,Stephylococcus sp.,1 µg/mL
same,Range (MIC),Stephylococcus sp.,0.25-2 ^ μg/mL
same,MIC50,C. bolteae,> 1020 µg/mL
same,MIC90,C. bolteae,> 1020 µg/mL
same,MIC50,[3],512 µg/mL
same,MIC90,[3],> 1020 µg/mL
same,MIC50,C. clostridioforme,4 µg/mL
same,MIC90,C. clostridioforme,> 1020 µg/mL
same,MIC50,C. innocuum,> 1020 µg/mL
same,MIC90,C. innocuum,> 1020 µg/mL
same,MIC50,Other Clostridium sp.,32 µg/mL
same,MIC90,Other Clostridium sp.,1020 µg/mL
same,MIC50,C. difficile; Clostridioides difficile,0.12 µg/mL
same,MIC90,C. difficile; Clostridioides difficile,0.25 µg/mL
same,Range (MIC),C. difficile,0.062 to 2 µg/mL
same,MIC50,Bacteroides fragilis; Bacteroides fragilis,≥ 128 µg/mL
same,Range (MIC),Bacteroides fragilis,≧128^
same,Range (MIC),Lactobacillus sp.,8-32
same,MIC50,Propionibacterium sp.,4 µg/mL
same,MIC50,Prevotella sp.,≥ 128 µg/mL
same,MIC50,[4],0.5 µg/mL
same,MIC90,[4],2 µg/mL
same,Range (MIC),[4],0.06 to 1024 µg/mL
same,MIC50,Enterococcus sp.; Enterococcus,8 µg/mL
same,MIC90,Enterococcus sp.; Enterococcus,8 µg/mL
same,Range (MIC),Enterococcus sp.,0.5-16^ μg/mL
